Measured values taken from paper PMC8501045, “Addressing MRSA infection and antibacterial resistance with peptoid polymers” (Nature Communications, 2021).
Values after ≈ are worked out from the molar mass of the structure shown. Values joined by “and” are separate entries in the source; they are usually repeats but may differ in a detail not shown here. Identical values can stand only once.

Legend:
S. aureus USA300 LAC = test: Mouse full-thickness wound infection model, MRSA; assay type: in vivo; details: 1.56 mg/mL topical
Procedure: This infection model was conducted according to the previously reported method with slight modification. Female balb/c mice (20–21 g) were used in the full-thickness wound model caused by MRSA. Prior to surgery, mice were anesthetized with an intraperitoneal injection of sodium pentobarbital at a dose of 75 mg/kg. The dorsal hair was shaved, and the skin was rinsed with 75% alcohol three times. The 6-mm-diameter full-thickness wounds were punctured on either side of the back using a biopsy punch. An aliquot of 10 µL S. aureus USA300 LAC suspension (1.25 × 10^5 CFU/mL) was added to wound site. The wound site was covered by Tegaderm dressing (3 M, St Paul, MN) to prevent contamination. […] The treatments were applied every 4 h for a total of three times. After the last treatment for 4 h, mice were euthanized with an overdose of sodium pentobarbital. The wound sites were excised, weighed, and homogenized in PBS containing 0.1% TX-100. Then the homogenate was serially diluted for plating on LB agar. After incubation at 37 °C for 14 h, the number of colonies on the plate was counted to calculate the bacteria burden of wounds.

L. monocytogenes 1001 = test: MIC assay, clinical isolate; assay type: cell-based, Listeria monocytogene; details: Listeria monocytogenes, 1001
Procedure: (§1) MRSA (S. aureus Mu50, S. aureus Newman, S. aureus USA400, S. aureus USA300 LAC, S. aureus USA300) were obtained from Shanghai Institute of Materia Medica, Chinese Academy of Sciences. All clinically isolated Gram-positive bacteria used in this study were isolated from patients with various infections, different ages and sexes in the Shanghai Ruijin Rehabilitation Hospital. All strains were cultured in Luria-Bertani (LB) medium at 37 °C before use.
(§2) Bacteria were cultured in LB medium at 37 °C for 10 h, and then the bacterial suspension was diluted in Mueller–Hinton (MH) medium to a cell density of 2 × 10^5 colony forming units (CFU)/mL as the working suspension. The poly(Naeg)20 was serially diluted by MH medium in a 96-well plate, and an equal volume of bacterial suspension was added into each well. The final concentration of the poly(Naeg)20 was ranging from 200 to 1.56 μg/mL, and the plates were incubated at 37 °C for 9 h. Wells with inoculum and no polymer were used as the positive control; wells with only MH medium were used as the blank. The optical density (OD) in each well was measured on a Molecular Devices SpectraMax M2 precision microplate reader. The percentage of bacteria growth was calculated from1 %cellgrowth=A600polymer-A600blank/A600control-A600blank×100
(§3) The test was independently repeated at least three times.

S. epidermidis 9397 [1] = test: Mouse peritonitis model, CFU in organs, blood and IP fluid, S. epidermidis; assay type: in vivo; details: Figure 6e
Procedure: (§4) This infection model was conducted according to the previously reported method with slight modification. Female ICR mice (21–24 g) were used for MRSA-infected peritonitis model. Mice were infected by intraperitoneal administration of 0.2 mL of S. aureus USA300 LAC in saline (7.5 × 10^8 CFU/mL) supplemented with 5% mucin. […] Once the infected mice died, peritoneal lavage was performed by injecting 3.0 mL of saline into the peritoneal cavity and massaging the abdomen. Subsequently, the abdomen was opened and peritoneal fluid was recovered from the abdominal cavity for analysis. Blood samples were collected through cardiac puncture for analysis of CFU/mL. Then, different organs including the heart, liver, spleen, lung, and kidney were removed and homogenized in 0.1% TX-100 solution. The homogenate was serially diluted for plating on LB agar. After incubation at 37 °C for 14 h, the number of colonies on the plate was counted to calculate the bacteria burden. Surviving mice were euthanized at 48 h after infection. The blood, peritoneal fluid, and organs were collected for the determination of bacterial colonies. […] For the pretreatment group, mice were sacrificed and tissues were harvested to determine the CFU at 1 h post infection.
For experiments of S. epidermidis and S. haemolyticus infections, female ICR mice (22–24 g) were rendered neutropenic by treatment with 150 and 100 mg/kg of cyclophosphamide intraperitoneally at 4 days and 1 day prior to infection. Mice were infected by intraperitoneal administration of 0.2 mL of S. epidermidis 9397 (5.1 × 10^9 CFU/mL) or S. haemolyticus 0202 (2.6 × 10^9 CFU/mL) in saline. Other experiment conditions were similar to those in MRSA peritonitis model.

[2] = system: S. aureus USA300 mature biofilm; test: Activity against mature biofilm; assay type: cell-based, Staphylococcus aureus; details: for Biofilm survival(%): vancomycin, r4-r9 = 32, 64, 128, 256, 512, 1024 MIC
Procedure: The plate was incubated at 37 °C for 24 h to allow biofilm formation. […] Then MTT assay was used to determine the biofilm viability. Wells containing inoculum and without antibacterial agents were used as the positive control; wells containing only MH medium were used as the blank. The percentage of surviving cells within biofilm was calculated from5 %cellviability=A570polymer-A570blank/A570control-A570blank×100
as §3

E. faecium 1205 = test: MIC assay, clinical isolate; assay type: cell-based; details: Enterococcus faecium, 1205
Procedure: as §1, §2, §3

E. faecalis 2305 = test: MIC assay, clinical isolate; assay type: cell-based; details: Enterococcus faecalis, 2305
Procedure: as §1, §2, §3

E. faecium 2504 = test: MIC assay, clinical isolate; assay type: cell-based; details: Enterococcus faecium, 2504
Procedure: as §1, §2, §3

S. epidermidis 9397 [3] = test: Mouse peritonitis model, survival test, S. epidermidis; assay type: in vivo; details: i.p. 20 mg/kg, 7 days
Procedure: as §4, with “post infection. […]” for “post infection.”

Structure (SMILES): CN[C@H](CC(C)C)C(=O)N[C@H]1C(=O)N[C@@H](CC(N)=O)C(=O)N[C@H]2C(=O)N[C@H]3C(=O)N[C@H](C(=O)N[C@H](C(=O)O)c4cc(O)cc(O)c4-c4cc3ccc4O)[C@H](O)c3ccc(c(Cl)c3)Oc3cc2cc(c3O[C@@H]2O[C@H](CO)[C@@H](O)[C@H](O)[C@H]2O[C@H]2C[C@](C)(N)[C@H](O)[C@H](C)O2)Oc2ccc(cc2Cl)[C@H]1O [Vancomycin]
- reduction in the bacterial burden on the wound compared with the saline group (S. aureus USA300 LAC): ~ 1.2 log
- MIC (L. monocytogenes 1001): 0.39 µg/mL (≈ 0.269 µM)
- Log10(CFU/mL IP fluid) (S. epidermidis 9397 [1]; individual mouse 1 of 6): 6.824 Log10(CFU/mL)
- Log10(CFU/mL IP fluid) (S. epidermidis 9397 [1]; individual mouse 2 of 6): 5.982 Log10(CFU/mL)
- Log10(CFU/mL IP fluid) (S. epidermidis 9397 [1]; individual mouse 3 of 6): 4.068 Log10(CFU/mL)
- Log10(CFU/mL IP fluid) (S. epidermidis 9397 [1]; individual mouse 4 of 6): 3.222 Log10(CFU/mL)
- Log10(CFU/mL IP fluid) (S. epidermidis 9397 [1]; individual mouse 5 of 6): 3.067 Log10(CFU/mL)
- Log10(CFU/mL IP fluid) (S. epidermidis 9397 [1]; individual mouse 6 of 6): 4.206 Log10(CFU/mL)
- Log10(CFU/mL Blood) (S. epidermidis 9397 [1]; individual mouse 1 of 6): 4.311 Log10(CFU/mL)
- Log10(CFU/mL Blood) (S. epidermidis 9397 [1]; individual mouse 2 of 6): 4.38 Log10(CFU/mL)
- Log10(CFU/mL Blood) (S. epidermidis 9397 [1]; individual mouse 3 of 6): 2.602 Log10(CFU/mL)
- Log10(CFU/mL Blood) (S. epidermidis 9397 [1]; individual mouse 4 of 6): 2.824 Log10(CFU/mL)
- Log10(CFU/mL Blood) (S. epidermidis 9397 [1]; individual mouse 5 of 6): 0 Log10(CFU/mL)
- Log10(CFU/mL Blood) (S. epidermidis 9397 [1]; individual mouse 6 of 6): 2.301 Log10(CFU/mL)
- Log10(CFU/g Heart) (S. epidermidis 9397 [1]; individual mouse 1 of 6): 5.45 Log10(CFU/g)
- Log10(CFU/g Heart) (S. epidermidis 9397 [1]; individual mouse 2 of 6): 5.747 Log10(CFU/g)
- Log10(CFU/g Heart) (S. epidermidis 9397 [1]; individual mouse 3 of 6): 5.222 Log10(CFU/g)
- Log10(CFU/g Heart) (S. epidermidis 9397 [1]; individual mouse 4 of 6): 5.315 Log10(CFU/g)
- Log10(CFU/g Heart) (S. epidermidis 9397 [1]; individual mouse 5 of 6): 4.186 Log10(CFU/g)
- Log10(CFU/g Heart) (S. epidermidis 9397 [1]; individual mouse 6 of 6): 4.735 Log10(CFU/g)
- Log10(CFU/g Kidney) (S. epidermidis 9397 [1]; individual mouse 1 of 6): 6.633 Log10(CFU/g)
- Log10(CFU/g Kidney) (S. epidermidis 9397 [1]; individual mouse 2 of 6): 6.452 Log10(CFU/g)
- Log10(CFU/g Kidney) (S. epidermidis 9397 [1]; individual mouse 3 of 6): 4.81 Log10(CFU/g)
- Log10(CFU/g Kidney) (S. epidermidis 9397 [1]; individual mouse 4 of 6): 4.699 Log10(CFU/g)
- Log10(CFU/g Kidney) (S. epidermidis 9397 [1]; individual mouse 5 of 6): 4.119 Log10(CFU/g)
- Log10(CFU/g Kidney) (S. epidermidis 9397 [1]; individual mouse 6 of 6): 4.752 Log10(CFU/g)
- Log10(CFU/g Liver) (S. epidermidis 9397 [1]; individual mouse 1 of 6): 7.125 Log10(CFU/g)
- Log10(CFU/g Liver) (S. epidermidis 9397 [1]; individual mouse 2 of 6): 7.288 Log10(CFU/g)
- Log10(CFU/g Liver) (S. epidermidis 9397 [1]; individual mouse 3 of 6): 4.887 Log10(CFU/g)
- Log10(CFU/g Liver) (S. epidermidis 9397 [1]; individual mouse 4 of 6): 4.845 Log10(CFU/g)
- Log10(CFU/g Liver) (S. epidermidis 9397 [1]; individual mouse 5 of 6): 3.985 Log10(CFU/g)
- Log10(CFU/g Liver) (S. epidermidis 9397 [1]; individual mouse 6 of 6): 5.176 Log10(CFU/g)
- Log10(CFU/g Lung) (S. epidermidis 9397 [1]; individual mouse 1 of 6): 6.477 Log10(CFU/g)
- Log10(CFU/g Lung) (S. epidermidis 9397 [1]; individual mouse 2 of 6): 5.954 Log10(CFU/g)
- Log10(CFU/g Lung) (S. epidermidis 9397 [1]; individual mouse 3 of 6): 6.211 Log10(CFU/g)
- Log10(CFU/g Lung) (S. epidermidis 9397 [1]; individual mouse 4 of 6): 5.171 Log10(CFU/g)
- Log10(CFU/g Lung) (S. epidermidis 9397 [1]; individual mouse 5 of 6): 3.564 Log10(CFU/g)
- Log10(CFU/g Lung) (S. epidermidis 9397 [1]; individual mouse 6 of 6): 4.434 Log10(CFU/g)
- Log10(CFU/g Spleen) (S. epidermidis 9397 [1]; individual mouse 1 of 6): 7.954 Log10(CFU/g)
- Log10(CFU/g Spleen) (S. epidermidis 9397 [1]; individual mouse 2 of 6): 7.349 Log10(CFU/g)
- Log10(CFU/g Spleen) (S. epidermidis 9397 [1]; individual mouse 3 of 6): 7.368 Log10(CFU/g)
- Log10(CFU/g Spleen) (S. epidermidis 9397 [1]; individual mouse 4 of 6): 5.666 Log10(CFU/g)
- Log10(CFU/g Spleen) (S. epidermidis 9397 [1]; individual mouse 5 of 6): 5.977 Log10(CFU/g)
- Log10(CFU/g Spleen) (S. epidermidis 9397 [1]; individual mouse 6 of 6): 6.041 Log10(CFU/g)
- concentration that eradicates mature biofilms of S. aureus [2]: > 1024 × MIC
- Biofilm survival(%) ([2]; replicate 1): 57.1927% and 41.3774% and 45.7038% and 29.4643% and 29.3131% and 28.1882%
- Biofilm survival(%) ([2]; replicate 2): 57.8677% and 50.7936% and 39.7472% and 30.2942% and 28.1255% and 26.0416%
- MIC (E. faecium 1205): 0.39 µg/mL (≈ 0.269 µM)
- MIC (E. faecalis 2305): 0.78 µg/mL (≈ 0.538 µM)
- MIC (E. faecium 2504): 0.78 µg/mL (≈ 0.538 µM)
- mice survived (S. epidermidis 9397 [3]): 4/6
